Reference: patent US9238632B2, “3-cyanoanilinoalkylarylpiperazine derivative and use thereof in preparing drugs” (NHWA Pharma. Corporation, priority 2012, dated 2016)

Columns and labels:
[1] = system: rat formalin induced pain model; assay: Rat formalin induced pain model (leg-raising times); format: in vivo, SD rats; conditions: formalin 1 h later, Mean ± SD, n=10
From the text: Rat formalin induced pain model is used to test in vivo analgesic effect of hydrochloride of compound III-10.
Rat formalin induced pain model is established by Dubuisson and Dennis in 1977. It can simulate some characteristics of human pains after damages, and its persistent tension pain is similar to common clinical chronic pains. Its experimental results have excellent repeatability, and it is considered to be universally accepted pain model which is more reliable than short-term mechanical or thermal stimulation models. It has been generally used in investigation and determination of pain mechanism, pain physiology and pharmacology, screening of the analgesic effects of drugs and evaluation of analgesic drugs.
Test compounds are prepared to relevant doses with 0.5% CMC-Na before use.
Formaldehyde solution: batch number HN20041109, HuaDong reagent industrial company. In experiment, it is diluted to 5% formaldehyde solution with 0.9% sodium chloride injection.
90 SD rats of weight (240-350 g), half female and half male, are fed for I week to adapt the environment, with 5 in each cage during feeding, the rats are fed under standard condition during experiments with free access to water and food.
90 SD rats of weight 240-350 g are randomly divided into 9 groups which are negative control group, model group, gabapentin group, high, median and low dosage group of each compound respectively, with 10 rats in each group, half female and half male. Relevant test compounds are given by intragastric administration, and 5% formalin (50 ul) is subcutaneously injected at the left rear foot in 1 h to model, formation of pichu indicates a successful modeling. 0.5% (weight percentage) CMC-Na is given by intragastric administration in negative control group, and normal saline (50 ul) is subcutaneously injected at the bottom of right rear foot in 1 h. After modeling, the leg-raising times in 1-2 minutes and 5-6 minutes are observed. The time period 10-60 minutes are divided into 5 minutes intervals, and the leg-raising times of the first minute of each interval (10-11, 15-16, 20-21, 25-26, 30-31, 35-36, 40-41, 45-46, 50-51, 55-56, 60-61) are observed.
Measuring index is expressed as mean±standard deviation (Mean±SD), comparison is analyzed with One-way ANOVA.

5-HT2A receptor = target: T1, 5-HT2A receptor (Rattus norvegicus, UniProt P14842); assay: In vitro competitive binding test to 5-HT2A receptor ([3H]-Ketanserin, rat cerebral cortex membranes); conditions: 10 μmol/L compound; hydrochloride salts; rat cerebral cortex membrane; unit (I %); read-out: 5-HT2A affinity [3H]-Ketanserin (inhibition rate of radioligand binding)
T1 construct: The supernatant is discarded and the precipitate (membrane receptor) is stocked; from tissue; host or cells: SD rat cerebral cortex membranes
Method: (§1) Animals: clean grade SD rats, female and male, 250-300 g, purchased from Nanjing QingLongshan animal breeding center.
(§2) Radioligand: [^3H]-8-OH-DPAT, [^3H]-Ketanserin, purchased from PerkinElmer company; 5-HT and Methysergide, purchased from Sigma company.
Preparation of 5-HT2A buffer solution: Tris (6.05 g) is dissolved in ultrapure water (1000 ml). PH is adjusted to 7.4 with HCl. Tris-HCl buffer solution (0.05M) is used.
(§3) Preparation of radioligand: 50 μl mother liquor is diluted to 5 ml with anhydrous ethanol, and stocked for use.
(§4) Preparation of non-labeling ligand: appropriate amounts of 5-HT and Methysergide are dissolved in ultrapure water to give solutions with final concentrations of 2*10^−5M respectively.
(§5) Preparation of solutions of various test drugs: appropriate amount of each drug is first diluted to 1 ml with ultrapure water as stock solution. When needed, 10 μl of the stock solution is diluted to 1 ml to reach a level of 10^−5M.
(§6) Rats are decapitated to get the brains. The target tissues (left and right cerebral cortex) are separated on ice, added with 10-fold volume (V/W) of ice-cold buffer, and homogenized with tissue Homogenizer for several seconds 3 times to form tissue homogenate. The tissue homogenate is centrifuged with low temperature superb centrifuge (12000 r/min) 3 times, with each for 20 minutes. The supernatant is discarded and the precipitate (membrane receptor) is stocked in −80° C. ultralow temperature freezer.
(§7) The membrane receptor is added with certain volume of ice-cold buffer and homogenized to make membrane receptor solutions at certain concentrations.
(§8) Various reaction solutions are added in the following sequences and ratios:
(§9) Total binding tube: 100 μl membrane receptor+100 μl buffer+10 μl radioligand
(§10) Non-specific tube: 100 μl membrane receptor+100 μl non-labeling ligand+10 μl radioligand
(§11) Test compound tube: 100 μl membrane receptor+100 μl drug solution+10 μl radioligand
(§12) Above tubes are put in 37° C. water bath immediately after finishing adding radioligand into each of them and then incubated for 25 min. After 25 min, the tubes are put in ice water to quench the reaction. Each tube is poured into suction filtration device to filter, and the filter membrane is washed with 5-10 ml ice-cold buffer twice. The filter membrane is dried in 85° C. oven, and then put into test tubes, and added with certain amount of scintillation liquid to soak overnight. Radioactivity is determined using liquid scintillation counter.
(§13) Each compound is tested in duplicate, and the tests are carried out independently twice.

[2] = system: Salmonella typhimurium histidine auxotrophic mutants TA97, TA98, TA100 and TA102; assay: Bacterial reverse mutation test (Ames test); conditions: −S9 and +S9, all dosages
Method: Strains: Salmonella typhimurium histidine auxotrophic mutants TA97, TA98, TA100 and TA102.
Results: the experiments include two parts of −S9 and +S9. In the test system without S9, TA98 5000 μg/dish has antibacterial activity, and in the test system with S9, TA97 5000 μg/dish has antibacterial activity. Other dosages have no antibacterial activity to any of the strains, and the growth background is excellent. […] Ames test is negative.

hSERT = hSERT (Homo sapiens, UniProt P31645); assay: In vitro inhibition of serotonin reuptake ([3H]-5-HT) in cells stably expressing hSERT
Method: Positive control compound: fluoxetine.
Sample treatment: about 1 mg of compound is weighted and added with relative amount of DMSO to prepare 10^−2M stock solution. Before use, the stock solution is diluted with HBSS buffer to relative concentrations. Each sample is dissolved in DMSO completely. The dilution is clear and without obvious cloudy and formation of precipitate after adding with buffer.
(1) Cells which can stably express hSERT are seeded into 24-well plates respectively.
(2) Experiments are started when the cell confluence reaches 80-90%.
(3) Liquids in the plates are discarded, the plates are washed with PBS twice at room temperature.
(5) Plates are incubated at 37° C. for 10 min after slight oscillation.
(6) Then 20 μl radioisotope is added (cpm: about 20000).
(7) Plates are incubated at 37° C. for 5 min after slight oscillation.
(8) Liquids in the plates are discarded, the plates are washed with ice-cold PBS twice, all the liquids in the plates are removed away.
(9) NaOH (2M, 100 μl) is added into each well to lyse the cells. All the lysates are combined and put on GF/C glass fiber filter paper.
(10) The filter papers are dried and put in 0.5 ml centrifuge tube, 500 μl lipid soluble scintillation liquid are added. Radioactivity is determined by MicroBeta liquid scintillation counter. Each concentration is tested intriplicate, and tests are carried out independently twice.
Test concentration is 10 μmol/L. The positive drug provided is set as control (10 μmol/L) in each experiment. The experimental processes are the same as the above process.

[3] = Acute toxicity study, single drench to mice (LD50, Bliss method); conditions: mouse, in vivo, oral, hydrochloride
From the text: Bliss method is used for statistics.

5-HT1A receptor = target: T2, 5-HT1A receptor (Rattus norvegicus, UniProt P19327); assay: In vitro competitive binding test to 5-HT1A receptor ([3H]-8-OH-DPAT, rat cerebral cortex membranes); conditions: 10 μmol/L compound; hydrochloride salts; rat cerebral cortex membrane; unit (I %); read-out: 5-HT1A affinity [3H]-8-OH-DPAT (inhibition rate of radioligand binding)
T2 construct: The supernatant is discarded and the precipitate (membrane receptor) is stocked; from tissue; host or cells: SD rat cerebral cortex membranes
T2 sequence (P19327 1-422): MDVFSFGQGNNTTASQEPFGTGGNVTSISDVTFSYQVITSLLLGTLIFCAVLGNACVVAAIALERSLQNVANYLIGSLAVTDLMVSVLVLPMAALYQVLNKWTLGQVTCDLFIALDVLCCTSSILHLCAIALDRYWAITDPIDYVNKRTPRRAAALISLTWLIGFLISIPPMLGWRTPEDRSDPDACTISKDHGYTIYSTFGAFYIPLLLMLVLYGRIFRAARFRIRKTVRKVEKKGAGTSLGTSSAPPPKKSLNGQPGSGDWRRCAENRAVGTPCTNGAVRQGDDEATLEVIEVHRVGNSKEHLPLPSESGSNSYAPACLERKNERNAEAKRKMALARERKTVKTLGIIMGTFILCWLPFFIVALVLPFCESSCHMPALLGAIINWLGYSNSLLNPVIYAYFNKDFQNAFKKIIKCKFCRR
Method: as §1, §2
Preparation of 5-HT1A buffer solution: Tris-HCl buffer solution (0.05M, 1000 ml) is added with certain amount of ascorbic acid, pargyline and CaCl2, to give final concentrations of 0.1%(ascorbic acid), 10 um (pargyline) and 4 mM (CaCl2) separately.
as §3, §4, §5, §6, §7, §8, §9, §10, §11, §12, §13

Chain of hSERT (P31645 whole entry): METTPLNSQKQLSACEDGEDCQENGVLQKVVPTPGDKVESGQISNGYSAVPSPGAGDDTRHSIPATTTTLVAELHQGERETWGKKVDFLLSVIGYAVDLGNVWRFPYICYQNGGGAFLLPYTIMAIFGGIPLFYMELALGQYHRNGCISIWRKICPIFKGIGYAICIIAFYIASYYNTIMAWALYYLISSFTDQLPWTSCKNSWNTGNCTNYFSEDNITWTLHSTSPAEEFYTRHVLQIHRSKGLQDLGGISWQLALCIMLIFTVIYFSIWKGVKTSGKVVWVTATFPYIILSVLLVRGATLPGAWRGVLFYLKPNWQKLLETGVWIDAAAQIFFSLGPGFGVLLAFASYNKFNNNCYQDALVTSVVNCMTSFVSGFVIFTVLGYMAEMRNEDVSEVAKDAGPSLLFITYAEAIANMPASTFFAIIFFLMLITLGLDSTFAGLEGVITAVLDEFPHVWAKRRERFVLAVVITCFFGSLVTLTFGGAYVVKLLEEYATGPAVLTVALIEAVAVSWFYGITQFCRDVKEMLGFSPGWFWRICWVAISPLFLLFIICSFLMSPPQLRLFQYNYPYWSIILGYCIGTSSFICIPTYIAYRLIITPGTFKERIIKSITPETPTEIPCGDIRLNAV
T1 sequence (P14842 whole entry): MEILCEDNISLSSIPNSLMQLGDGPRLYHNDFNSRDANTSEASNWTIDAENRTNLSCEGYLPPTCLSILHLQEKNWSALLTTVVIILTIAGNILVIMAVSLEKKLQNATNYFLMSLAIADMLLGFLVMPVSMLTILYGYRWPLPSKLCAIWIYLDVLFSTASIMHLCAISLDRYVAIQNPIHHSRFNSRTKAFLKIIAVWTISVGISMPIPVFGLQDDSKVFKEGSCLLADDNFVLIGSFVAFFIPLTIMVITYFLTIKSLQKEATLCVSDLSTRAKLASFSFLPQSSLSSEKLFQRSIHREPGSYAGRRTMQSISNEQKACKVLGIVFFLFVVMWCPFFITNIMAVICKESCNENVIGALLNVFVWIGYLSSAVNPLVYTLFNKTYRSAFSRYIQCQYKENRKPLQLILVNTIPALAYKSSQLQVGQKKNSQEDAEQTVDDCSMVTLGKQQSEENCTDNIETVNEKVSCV

CN(CCCN1CCN(c2cccc(Cl)c2)CC1)c1cccc(C#N)c1 [III-10, 3-((3-(4-(3-chlorophenyl)piperazin-1-yl)propyl)methylamino)benzonitrile]
phase I times (leg-raising times) ([1]; 40 mg/kg intragastric): 21.23 ± 11.24 time
phase I times (leg-raising times) ([1]; 160 mg/kg intragastric): 21.90 ± 15.48 time
inhibition at 10 µM (5-HT2A receptor): 145%
Ames test (colony reverse mutations) [2]: negative
IC50 (hSERT): 138 ± 35 nM
inhibition effect to 5-HT reuptake compared with fluoxetine (hSERT): more potent than that of fluoxetine
inhibition at 10 µM (hSERT; read-out: Inhibition rates of SERT reuptake [3H]-5-HT): 94.3%
LD50 [3]: 1500 mg/kg
inhibition at 10 µM (5-HT1A receptor): 109%
